Experimental data as given in patent US20210139857A1, “Intestinal organoid co-culture systems and methods for treating or preventing a disease or disorder associated with immune response-mediated tissue injury” (NEW YORK UNIVERSITY, priority 2019, published 2021).

Experiments:
Atg16L1^ΔIEC mice = experiment: preclinical GVHD model: allo-HCT after chemotherapy conditioning, GSK547 or control chow; assay type: in vivo, mouse; conditions: GSK547 chow started 10 days before allo-HCT, P<0.05
Description: FIG. 1F depicts the survival of chemotherapy-pretreated Atg16L1^f/f (f/f) and Atg16L1^ΔIEC (ΔIEC) mice which received GSK547 or control chow and were transplanted with 5×10^6 T cell-depleted BM cells with 4×10^6 splenic T cells from donor LP/J mice. n=8 (f/f, control), 8 (ΔIEC, control), 8 (f/f, GSK547), and 8 (ΔIEC, GSK547). GSK547 was started 10 days before allo-HCT, and continued until the end of the study. FIG. 1G depicts the clinical disease scores evaluated every 7 days after allo-HCT. Data points in FIG. 1B, FIG. 1D, and FIG. 1F represent individual mice, and data points in FIG. 1C, FIG. 1E, and FIG. 1G are mean of clinical scores of viable mice. Bars represent means±SEM, and survival data in FIG. 1B, FIG. 1D, and FIG. 1F are combined results of 2 experiments performed independently. FIG. 1B, FIG. 1D, and FIG. 1F were analyzed with the Mantel-Cox log rank test.
In brief, female B6 background mice were intraperitoneally injected with busulfan (20 mg/kg/day) for 5 days, followed by cyclophosphamide (100 mg/kg/day) for 3 days. Days −2 and −1 were rest days. […] Recipient mice were monitored daily for survival and weekly quantified for clinical GVHD for 5 clinical parameters (weight loss, hunched posture, activity, fur ruffling, and skin lesions) on a scale from 0 to 2. […]

[1] = test system: ATG16L1^T300A homozygous human organoids; experiment: human organoid viability assay, TNFα-induced death; assay type: cell-based; conditions: 50 ng/ml TNFα, 48 hours; 100 nM Ruxolitinib, 1 μM GSK547, 20 μM Necrostatin-1s, 2 μM NSA; P<0.0001
Procedure: N=14 (Nonrisk) and 6 (T300A/T300A). Statistical significance was validated with Fisher's exact test. FIG. 13B depicts a combined organoid viability in (A). N=14 (Non-risk) and 6 (T300A/T300A). FIG. 13C and FIG. 13D depict representative images (FIG. 13C) and viability (FIG. 13D) of human small intestinal organoids stimulated with or without 50 ng/ml TNFα, 100 nM Ruxolitinib, 1 μM GSK547, 20 μM Necrostatin-1s (Nec-1s), and 2 μM necrosulfonamide (NSA) for 48 hours. Scale bars represent 400 μm. Data points in FIG. 13B represent an average viability of individual organoids in FIG. 12, and data points in FIG. […] are mean of technical replicates. At least 2 independent experiments were performed. ***p<0.001, ****p<0.0001.
Mouse small intestinal and colonic crypts were isolated and cultured. Crypts of proximal small intestine were counted and embedded in Matrigel at 10,000 crypts/ml and cultured in DMEM/F-12 in the presence of 100 IU penicillin and 100 μg/ml streptomycin (Corning), 125 μg/ml gentamicin (Gibco), 2 mM l-glutamine (Corning), 20 ng/ml mEGF (PeproTech), 100 ng/ml mNoggin (R&D Systems), and 500 ng/ml mR-Spondin 1 (R&D Systems), hereafter referred as ENR medium. Crypts of colon were counted and embedded in Matrigel and cultured in the ENR medium plus 50 ng/ml Wnt-3a, 1×B-27, and N-2 supplement (Thermo Fisher Scientific). Surface area of organoids was quantified with Image J. For organoid viability assays, crypts were embedded in 10 μl of Matrigel at 5,000 crypts/ml and cultured in 96-well culture plate in triplicate with or without 20 ng/ml mTNFα (PeproTech) and 100 nM Ruxolitinib (Selleckchem). Percent viable organoids was determined by daily quantification of the number of intact organoids. Opaque organoids with condensed structures or those that have lost adherence were excluded. Dead organoids were marked by staining with 100 μg/ml propidium iodide (SIGMA-ALDRICH). Human intestinal organoids were cultured (Neil et al., 2019, Nat Microbiol 4, 1737-1749). […]

Structure (SMILES)	survival after allo-HCT (Atg16L1^ΔIEC mice; BM + T cells from LP/J donors)	clinical GVHD score after allo-HCT (Atg16L1^ΔIEC mice; scored every 7 days)	viability of human organoids, TNFα-induced death [1]
N#Cc1cc(N2CCC(C(=O)N3N=CC[C@H]3c3cc(F)cc(F)c3)CC2)ncn1 [GSK547]	significantly better survival	significantly better	significantly protected
CN1C(=O)NC(Cc2c[nH]c3c(Cl)cccc23)C1=O (centres unmarked) [Necrostatin-1s]			significantly protected
COc1nccnc1NS(=O)(=O)c1ccc(NC(=O)/C=C/c2ccc([N+](=O)[O-])s2)cc1 [Necrosulfonamide]			significantly protected
